This is an account of results in PMC7738869, “A novel STAT3 inhibitor W2014-S regresses human non-small cell lung cancer xenografts and sensitizes EGFR-TKI acquired resistance” (Theranostics, 2021).

Data set [1] has as its system A549 cells. Briefly: Transwell cell invasion assay, A549. Particulars: A549, 1 μM.
Procedure: Transwell invasion assays were performed as previously reported [37] using Transwell chamber (Costar, USA). […] Data from triplicates experiments were pooled and plotted as shown.
The subject of another data set is AKT. Briefly: Western blot of phosphorylated and total AKT in A549 and PC-9 cells. In kind it is cell-based, human. Particulars: A549 and PC-9, 0-3 μM, 24 h. The procedure: Cells or tumor tissue were lysed with RIPA buffer (Beyotime, Shanghai, China) supplemented with protease inhibitors (Beyotime, Shanghai, China) and phosphatase inhibitors (Bimake, USA). Lysates were denatured by heating for 5 min at 99 °C and loaded on 4-10% SDS-polyacrylamide gel electrophoresis. Then the proteins were transferred to polyvinylidene fluoride (PVDF) membranes (Millipore, USA). The membranes were blocked and probed with primary antibodies and secondary HPR-conjugated antibodies. At last the membranes were detected by chemiluminescence (Tanon, Shanghai, China). For co-immunoprecipitation experiments, 293T cells were plated and grew to about 80% confluency, then co-transfected with plasmids of HA-STAT3 and Flag-STAT3 using Lipofectamine 2000. After 24 h, cells were treated with different concentrations of W2014-S for following 24 h, and stimulated with IL-6 (100 ng/mL) for 1 h. Cells were lysed with IP RIPA buffer (Beyotime, Shanghai, China) supplemented with protease inhibitors (Beyotime, Shanghai, China) and phosphatase inhibitors (Bimake, America), and lysates were cultured with Anti-flag Affinity Gel (B23102, Bimake, USA) overnight at 4 ℃. The gel was washed by PBST for three times and added 1×loading buffer and denatured by heating for 5 min at 99 ℃. Then the proteins were resolved on SDS-PAGE, transferred to PVDF membranes and analysed with immunoblotting.
(In general: In western blotting, separated proteins are transferred to a membrane and probed.)

Another data set deals with PC-9 cells. Briefly: Cell viability assay (CCK-8), PC-9. In kind it is cell-based. Conditions: Homo sapiens, PC-9, 72 h, read-out: IC50 cell proliferation. On the procedure:
Cell proliferation was measured using the Cell Counting Kit-8 (CCK-8, B34304, Bimake, USA). A549 (2 × 10^3/100 μL/well), PC-9 (3 × 10^3/100 μL/well) or PC-9/GR cells (3 × 10^3/100 μL/well) were plated into each well of 96-well plates (Costar, USA). […] Then, 10 μL of CCK-8 was added to each well, and cells were incubated for 1-4 h until the color of untreated controls turned to orange. The absorbance (A) was measured by a microplate reader (FLUOstar Omega-ACU, USA) at test and reference wavelengths of 450 nm. The percentage of growth was calculated as Cell viability (%) = [A (Compound +) - A (Blank) ] / [A (Compound -) - A (Blank) ] × 100%. Cell viability meant proliferation of cells. Each experiment was done at least in triplicate, and thrice independently.

For data set [2], the system named is A549 cells. Briefly: Colony formation assay, A549. In kind it is cell-based, human. Particulars: A549, as low as 0.3 μM.
For the next data set, the system named is A549 xenografts. Nature of the data set: A549 tumor xenografts in nude mice. The class given is in vivo. On the procedure: To establish cell xenograft model, nude mice were injected subcutaneously with A549 cells (2×10^6) or PC-9/GR cells (4×10^6). For PDX model, the PDX sample was from The Jackson Laboratory. The model ID is TM00192/LG0567F. For this patient, the primary site is lung, the initial and diagnosis and final diagnosis is lung adenocarcinoma. The stage/grade is AJCC IB/grade 3. […] The sample type is surgical resection. […] The tumor sample were cut into approximately 1 mm^3, and the tissue was pushed under skin of mice by TROCHAR. When tumor volumes reached approximately 100 mm^3, mice were randomly distributed into groups of 7 mice. […] Tumor size was measured every two days by vernier caliper. The average tumor volume in each group was calculated based on the equation for a prolate spheroid (tumor volume = (short-diameter)^2 × large-diameter × π / 6 ) and expressed in mm^3.

SMILES strings stand for the structures.

`C[C@H](Oc1ccc(-c2nc3nc(C4=CCN(C(=O)OC(C)(C)C)CC4)ccc3[nH]2)cc1)c1ccccc1` [W2014-S]: the cell invasion entry in the data set on A549 cells [1] is given as “suppressed”. The “phosphorylation of AKT and total AKT” value in the data set with AKT is on record as “not affected”. Moreover, the IC50 in the data set with PC-9 cells was determined as 2.36 µM. The colony formation result in the data set on A549 cells [2] is reported as “significantly suppressed the colony formation”. The “body weights and signs of toxicity during treatment” value with A549 xenografts (A549 xenograft mice, 5 or 15 mg/kg daily, 21 d) is listed as “no significant changes in body weights, or obvious signs of toxicity”. Further, the “level of pY705-STAT3 in tumor (western blot)” value in the data set with A549 xenografts (A549 xenografts) is listed as “significantly suppressed the level of pY705-STAT3”. In the data set on A549 xenografts (A549 xenografts, i.p. 5 or 15 mg/kg daily, 21 d), the growth of xenografts entry was “significantly inhibited growth”. Also, in the data set with A549 xenografts (A549 xenografts, vs vehicle), the “expression of Ki-67 in tumor (IHC)” value is recorded as “significantly reduced”.
